From patent US20240308988A1, “Method For Controlling Diamide Resistant Pests and Compounds Therefor” (priority 2021, published 2024)

Assays:
[1] = system: Resistant Plutella xylostella R1 (multi-resistant larvae having the G4946E resistance mutation); experiment: Resistant Plutella xylostella R1 (Diamond back moth) larvicide L3, feeding/contact, sprayed Chinese cabbage leaves; assay type: in vivo; details: Plutella xylostella, 96 h, read-out: control of the resistant strain of Plutella xylostella R1
Experimental: Resistant Plutella xylostella R1 (Diamond back moth) larvicide L3, feeding/contact Chinese cabbage plants were sprayed with diluted test solutions in an application chamber. Cut off leaves were placed into petri dishes with wetted filter paper and infested 1 day after application with 10 L3 multi-resistant Plutella xylostella larvae having the G4946E resistance mutation.
Samples were assessed 4 days after infestation for mortality and growth regulation.
Chlorantraniliprole was used as standard and a resistance factor of 146 was obtained for this strain.
Plutella xylostella resistant strain R1 originally collected from Taiwan in 2012 that carries the RyR mutation G4946E conferring resistance to diamides. The strain is reared on cabbage plants (Brassica aleracea) and selected approximately every two weeks with chlorantraniliprole.

[2] = system: Resistant Plutella xylostella R4 (carries the RyR mutation G4946E); experiment: Resistant Plutella xylostella R4 (Diamond back moth) larvicide L1, feeding/contact, artificial diet in 24-well plates; assay type: in vivo; details: Plutella xylostella, 192 h, read-out: control of the resistant strain of Plutella xylostella R4
Experimental: Resistant Plutella xylostella R4 (Diamond back moth) larvicide L1, feeding/contact 24-well microtiter plates with artificial diet were treated with aqueous test solutions prepared from 10′000 ppm DMSO stock solutions by pipetting. After drying, around 30 Plutella eggs were pipetted through a plastic stencil onto a gel blotting paper and the plate was closed with it. The samples were assessed for mortality in comparison to untreated samples 8 days after infestation.
Chlorantraniliprole was used as standard and a resistance factor of 242 was obtained for this strain
Plutella xylostella resistant strain R4 originated in the lab in 2021 from crossing the R1 strain with a lab-reared susceptible P. xylostella strain (SUS). R4 can be reared and tested on artificial diet and also carries the RyR mutation G4946E conferring resistance to diamides. The strain is selected approximately every two weeks with chlorantraniliprole. The following compounds, according to the present invention, gave at least 80% control of the resistant strain of Plutella xylostella R4 at 50 ppm or below: P11, P18, P26, P31, P33, P34, P36, P38, P42, P43, P46, P49, P50, P52, P56, P58, P60, P61, P63, P64, P65, P66, P67, P73, P76, P84, P97, P99, P102, P105.

[3] = system: Plutella xylostella (Diamond back moth) ryanodine receptor, containing the G4946E resistance mutation; experiment: In vitro calcium fluorescence assay (Fluo-8 NW, FDSS) in human embryonic kidney cells expressing the ryanodine receptor; assay type: cell-based; details: table; EC50 (compound)/EC50 (cyantraniliprole); G4946E RyR in HEK cells
Experimental: Human embryonic kidney cells expressing the Plutella xylostella (Diamond back moth) ryanodine receptor, containing the G4946E resistance mutation, are loaded with Fluo-8 No Wash (NW) calcium-sensitive dye which responds by fluorescence to a change in intracellular calcium (e.g. stimulated by activation of ryanodine receptor). Test compounds are added in 10 rates to a 384-well plate containing dye-loaded cells and the fluorescent signal is measured using the Hamamatsu FDSS (Functional Drug Screening system). Dose-response curves are plotted to estimate the EC50. EC50 are normalized against an in-assay reference standard (cyantraniliprole) to address inter-assay variability. The ratio for a given compound is then obtained by the following formula:
REC50=EC50 (compound)/EC50 (cyantraniliprole).

SMILES	pest or weed control at 50 µg/mL [1] [%]	pest or weed control at 50 µg/mL [2] [%]	REC50 (Compound of the invention) [3]
NC(=O)c1cc(Cl)cc(Cl)c1NC(=O)c1cc(Cn2nnc(-c3ccc(C(F)(F)F)cc3)n2)nn1-c1ncccc1Cl [Compound P58, N-(2-carbamoyl-4,6-dichloro-phenyl)-2-(3-chloro-2-pyridyl)-5-[[5-[4-(trifluoromethyl)phenyl]tetrazol-2-yl]methyl]pyrazole-3-carboxamide]	≥ 80	≥ 80	–
Cc1cc(Cl)cc(C(N)=O)c1NC(=O)c1cc(Cn2nnc(-c3ccc(Br)cc3)n2)nn1-c1ncccc1Cl [Compound P49, 5-[[5-(4-bromophenyl)tetrazol-2-yl]methyl]-N-(2-carbamoyl-4-chloro-6-methyl-phenyl)-2-(3-chloro-2-pyridyl)pyrazole-3-carboxamide]	≥ 80	≥ 80	–
Cc1cc(I)cc(C(N)=O)c1NC(=O)c1cc(OCC(F)(F)F)nn1-c1ncccc1Cl [Compound P11, N-(2-carbamoyl-4-iodo-6-methyl-phenyl)-2-(3-chloro-2-pyridyl)-5-(2,2,2-trifluoroethoxy)pyrazole-3-carboxamide]	≥ 80	≥ 80	–
Cc1cc(Cl)cc(C(N)=O)c1NC(=O)c1cc(Br)nn1-c1ncccc1Br [Compound P73, 5-bromo-2-(3-bromo-2-pyridyl)-N-(2-carbamoyl-4-chloro-6-methyl-phenyl)pyrazole-3-carboxamide]	–	≥ 80	–
NC(=O)c1cc(Br)cc(Cl)c1NC(=O)c1cc(I)nn1-c1ncccc1Cl [Compound P36, N-(4-bromo-2-carbamoyl-6-chloro-phenyl)-2-(3-chloro-2-pyridyl)-5-iodo-pyrazole-3-carboxamide]	≥ 80	≥ 80	–
Cc1cc(Br)cc(C(N)=O)c1NC(=O)c1cc(Cn2ncc(C(F)(F)F)n2)nn1-c1ncccc1Cl [Compound P38, N-(4-bromo-2-carbamoyl-6-methyl-phenyl)-2-(3-chloro-2-pyridyl)-5-[[4-(trifluoromethyl)triazol-2-yl]methyl]pyrazole-3-carboxamide]	≥ 80	≥ 80	–
Cc1cc(C#N)cc(C(N)=O)c1NC(=O)c1cc(I)nn1-c1ncccc1Cl [Compound P66, N-(2-carbamoyl-4-cyano-6-methyl-phenyl)-2-(3-chloro-2-pyridyl)-5-iodo-pyrazole-3-carboxamide]	–	≥ 80	–
NC(=O)c1cc(Cl)cc(Cl)c1NC(=O)c1cc(I)nn1-c1ncccc1Cl [Compound P50, N-(2-carbamoyl-4,6-dichloro-phenyl)-2-(3-chloro-2-pyridyl)-5-iodo-pyrazole-3-carboxamide]	≥ 80	≥ 80	–
NC(=O)c1cc(I)cc(F)c1NC(=O)c1cc(C(F)(F)F)nn1-c1ncccc1Cl [Compound P64, N-(2-carbamoyl-6-fluoro-4-iodo-phenyl)-2-(3-chloro-2-pyridyl)-5-(trifluoromethyl)pyrazole-3-carboxamide]	–	≥ 80	0.69
NC(=O)c1cc(I)cc(Cl)c1NC(=O)c1cc(Br)nn1-c1ncccc1Cl [Compound P61, 5-bromo-N-(2-carbamoyl-6-chloro-4-iodo-phenyl)-2-(3-chloro-2-pyridyl) pyrazole-3-carboxamide]	–	≥ 80	–
Cc1cc(Br)cc(C(N)=O)c1NC(=O)c1cc(Cn2nnc(-c3ccc(C(F)(F)F)cc3)n2)nn1-c1ncccc1Cl [Compound P43, N-(4-bromo-2-carbamoyl-6-methyl-phenyl)-2-(3-chloro-2-pyridyl)-5-[[5-[4-(trifluoromethyl)phenyl]tetrazol-2-yl]methyl]pyrazole-3-carboxamide]	≥ 80	≥ 80	–
Cc1cc(Cl)cc(C(N)=O)c1NC(=O)c1cc(OCC(F)F)nn1-c1ncccc1Cl [Compound P56, N-(2-carbamoyl-4-chloro-6-methyl-phenyl)-2-(3-chloro-2-pyridyl)-5-(2,2-difluoroethoxy)pyrazole-3-carboxamide]	–	≥ 80	–
NC(=O)c1cc(Br)cc(Br)c1NC(=O)c1cc(C(F)(F)F)nn1-c1ncccc1Cl [Compound P46, 2-(3-chloro-2-pyridyl)-N-(2,4-dibromo-6-carbamoyl-phenyl)-5-(trifluoromethyl)-pyrazole-3-carboxamide]	–	≥ 80	0.39
NC(=O)c1cc(Br)cc(F)c1NC(=O)c1cc(C(F)(F)F)nn1-c1ncccc1Cl [Compound P42, N-(4-bromo-2-carbamoyl-6-fluoro-phenyl)-2-(3-chloro-2-pyridyl)-5-(trifluoromethyl)pyrazole-3-carboxamide]	–	≥ 80	–
Cc1cc(Cl)cc(C(N)=O)c1NC(=O)c1cc(Cn2nnc(-c3ccccc3)n2)nn1-c1ncccc1Cl [Compound P105, N-(2-carbamoyl-4-chloro-6-methyl-phenyl)-2-(3-chloro-2-pyridyl)-5-[(5-phenyltetrazol-2-yl)methyl] pyrazole-3-carboxamide]	–	≥ 80	–
NC(=O)c1cc(Cl)cc(Br)c1NC(=O)c1cc(Cn2ncc(C(F)(F)F)n2)nn1-c1ncccc1Cl [Compound P52, N-(2-bromo-6-carbamoyl-4-chloro-phenyl)-2-(3-chloro-2-pyridyl)-5-[[4-(trifluoromethyl)triazol-2-yl]methyl] pyrazole-3-carboxamide]	–	≥ 80	–
Cc1cc(Cl)cc(C(N)=O)c1NC(=O)c1cc(Cn2nnc(-c3ccc(F)c(Br)c3)n2)nn1-c1ncccc1Cl [Compound P102, 5-[[5-(3-bromo-4-fluoro-phenyl)tetrazol-2-yl]methyl]-N-(2-carbamoyl-4-chloro-6-methyl-phenyl)-2-(3-chloro-2-pyridyl)pyrazole-3-carboxamide]	–	≥ 80	–
Cc1cc(Cl)cc(C(N)=O)c1NC(=O)c1cc(Cn2nnc(-c3cccc(C(F)(F)F)c3)n2)nn1-c1ncccc1Cl [Compound P97, N-(2-carbamoyl-4-chloro-6-methyl-phenyl)-2-(3-chloro-2-pyridyl)-5-[[5-[3-(trifluoromethyl)phenyl]tetrazol-2-yl]methyl]pyrazole-3-carboxamide]	–	≥ 80	–
NC(=O)c1cc(I)cc(F)c1NC(=O)c1cc(Br)nn1-c1ncccc1Cl [Compound P65, 5-bromo-N-(2-carbamoyl-6-fluoro-4-iodo-phenyl)-2-(3-chloro-2-pyridyl) pyrazole-3-carboxamide]	–	≥ 80	–
COc1cc(C(=O)Nc2c(C)cc(Cl)cc2C(N)=O)n(-c2ncccc2Cl)n1 [Compound P9, N-(2-carbamoyl-4-chloro-6-methyl-phenyl)-2-(3-chloro-2-pyridyl)-5-methoxy-pyrazole-3-carboxamide]	≥ 80	–	0.37
Cc1cc(Cl)cc(C(N)=O)c1NC(=O)c1cc(Cn2nnc(-c3ccc(F)cc3)n2)nn1-c1ncccc1Cl [Compound P84, N-(2-carbamoyl-4-chloro-6-methyl-phenyl)-2-(3-chloro-2-pyridyl)-5-[[5-(4-fluorophenyl)tetrazol-2-yl]methyl] pyrazole-3-carboxamide]	–	≥ 80	–
Cc1cc(-c2nnn(Cc3cc(C(=O)Nc4c(C)cc(Cl)cc4C(N)=O)n(-c4ncccc4Cl)n3)n2)ccc1Cl [Compound P99, N-(2-carbamoyl-4-chloro-6-methyl-phenyl)-5-[[5-(4-chloro-3-methyl-phenyl)tetrazol-2-yl]methyl]-2-(3-chloro-2-pyridyl)pyrazole-3-carboxamide]	–	≥ 80	–
Cc1cc(Cl)cc(C(N)=O)c1NC(=O)c1cc(OCC(F)(F)F)nn1-c1ncccc1Cl [Compound P23, N-(2-carbamoyl-4-chloro-6-methyl-phenyl)-2-(3-chloro-2-pyridyl)-5-(2,2,2-trifluoroethoxy)pyrazole-3-carboxamide]	≥ 80	–	0.17
NC(=O)c1cc(I)cc(Cl)c1NC(=O)c1cc(C(F)(F)F)nn1-c1ncccc1Cl [Compound P60, N-(2-carbamoyl-6-chloro-4-iodo-phenyl)-2-(3-chloro-2-pyridyl)-5-(trifluoromethyl)pyrazole-3-carboxamide]	–	≥ 80	–
